Where a SMILES comes first, the peptide text is derived from it. Bridges are numbered along the chain shown (N, C = ends).
Experiments:
h-FXIIa [1] = molecular target: T1, h-FXIIa (Homo sapiens, UniProt P00748); assay: Effect of inhibitors on hydrolysis of S2302 by h-FXIIa; format: biochemical
T1 construct: purchased Enzyme Research Laboratories FXIIa 1212A
T1 sequence (P00748 373-615 limits assumed): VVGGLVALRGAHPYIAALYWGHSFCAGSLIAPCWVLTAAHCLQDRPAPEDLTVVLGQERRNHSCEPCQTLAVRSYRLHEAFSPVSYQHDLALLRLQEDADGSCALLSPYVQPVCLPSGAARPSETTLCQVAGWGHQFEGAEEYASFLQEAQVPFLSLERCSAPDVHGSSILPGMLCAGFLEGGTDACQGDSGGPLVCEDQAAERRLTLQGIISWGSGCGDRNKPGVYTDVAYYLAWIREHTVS
T1 sequence (P00748 20-372 partner limits assumed): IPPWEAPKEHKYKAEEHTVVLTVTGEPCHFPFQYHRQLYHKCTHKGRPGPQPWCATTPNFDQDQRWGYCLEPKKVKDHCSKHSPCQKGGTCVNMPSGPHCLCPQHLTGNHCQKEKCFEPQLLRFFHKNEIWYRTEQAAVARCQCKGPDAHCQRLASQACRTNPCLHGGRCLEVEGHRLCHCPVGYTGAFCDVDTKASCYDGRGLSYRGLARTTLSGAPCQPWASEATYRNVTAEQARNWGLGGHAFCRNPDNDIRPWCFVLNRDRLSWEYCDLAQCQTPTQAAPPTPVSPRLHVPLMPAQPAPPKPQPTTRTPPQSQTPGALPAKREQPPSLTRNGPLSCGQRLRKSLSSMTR
Description: (§1) Materials • S2302 From Chromogenic, lot # N0398718 SEQ0860, exp. date 2012-07. Water added on 7 Oct. […] On 3 Aug. […] Product code FXIIa 1212A, lot #FXIIa 2520PL. Bottle with 0.5 mg was reconstituted with 370 μl pure water. […] Buffer 4 mM NaAc, 150 mM NaCl (pH 5.3). Preparation was divided into 20 μl amounts and frozen at −80° C. • Hepes735 140 mM NaCl, 20 mM Hepes, 0.02% NaN3 (pH 7.35). • BSA5 Hepes735+5 mg/ml BSA. • CTI Prepared on 17 Dec. 2004, 0.141 mg/ml, i.e. 0.141/12028=11.7*10^−6 M (11.7 μM). One portion was thawed and divided into 3 parts. Part 1 was frozen at −80° C.; part 2 was kept at RT; and part 3 was incubated 30 min at 95° C. and then kept at RT.
(§2) Stock FXIIa was diluted 700× in BSA5. The inhibitor was diluted in BSA5 as indicated. Wells contained 70 μl diluted FXIIa (5 nM final), 70 μl inhibitor and 20 μl S2302 (475 or 462.5 μM final). The reaction was started after 5 min heating on the heating plate with S2302. Filters 405 nm and 490 nm reference. Found mΔA/min was multiplied by 2.14 to get the figure for a 1 cm path.
The residual activity (V) was fitted against the PTI concentration with equation:
(§3) V=(E+(sqrt(Ê2+2*E*(Ki−I)+Î2+2*I*Ki+Kî2)−E−I−Ki)/2)*kcat*S/(Km+S)
(§4) in which E=[FXIIa], Ki is the dissociation constant, I=[Inhibitor], kcat and Km are Michaelis constants and S=[S2302].

h-FXIIa [2] = molecular target: T1, h-FXIIa; assay: Stability of CTI, PTI and TICA at RT and at 95° C., read as inhibition of h-FXIIa; format: physicochemical
Description: as §1, with “Part 1 was frozen at −80° C.; part 2 was kept at RT; and part 3 was incubated 30 min at 95° C. and then kept at RT.” left out
as §2, with “ΔmA/min” for “mΔA/min”
The residual activity (V) was fitted against the inhibitor concentration with equation:
as §3, §4
To calculate the concentration of I the equation I=x·(x−E−Ki)/(x−E) was used. In this equation is I the calculated inhibitor concentration, x=the residual activity of FXIIa (free FXIIa), E the total FXIIa concentration (=9.33 nM), and Ki the dissociation or inhibitor constant.

contact activation = assay: Thrombin generation (CAT) in platelet poor plasma contact activated with kaolin; format: biochemical, human; details: concentration that prolongs clotting time of kaolin contact activated plasma four times
Description: Thrombin generation was carried out according to WO2003/093831.
Following a double centrifugation at 2500×g for 15 min at room temperature, platelet poor plasma (PPP) was collected from the upper half volume of plasma supernatant, quick frozen and stored at −80° C. The absence of platelet and leucocyte in PPP was checked with an ADVIA 120 counter (Bayer Diagnostics, NY, USA).
Recombinant human tissue factor Innovin® was obtained from Dade Behring (Marburg, Germany) and used at a final concentration of 0.5 pM in PRP and 1 or 5 pM in PPP samples. The phospholipid vesicles used at a final concentration of […] were obtained from Avanti Polar Lipids (Alabaster, Ala., USA) and consisted of 20 mol % phosphatidylserine (PS), 20 mol % phosphatidylethanolamine (PE) and 60 mol % phosphatidylcholine (PC) and were prepared by extrusion method (9,10). Kaolin light (hydrated aluminium silicate) was obtained from Baker Harrison ltd, (Ilford, UK).
Hepes-buffered saline contained 20 mM Hepes (Sigma Aldrich, l'Ile d'Abeau Chesnes, France), 140 mM NaCl and 5 mg/mL bovine serum albumin (BSA) (Euromedex, Souffelweyersheim, France), pH 7.35. This buffer was stored at −20° C. until use. A fresh mixture of fluorogenic substrate and CaCl2 was prepared before each experiment. Fluorogenic substrate, Z-Gly-Gly-Arg-AMC, was obtained from Bachem (Bubendorf, Switzerland). The mixture of fluorogenic substrate 2.5 mM and CaCl2 0.1 M was prepared using buffer containing Hepes 20 mM and 60 mg/mL BSA, pH 7.35. The Calibrator with the activity of 600 nM human thrombin was obtained from Thrombinoscope BV (Maastricht, The Netherlands). Transparent, round bottom Greiner microtiter plates (Greiner ref 65204, Poitiers, France) were used.
Thrombin generation was measured using Calibrated Automated Thrombography (CAT) according to the methodology of WO2003/093831 and a 96-well plate fluorometer (Fluoroscan Ascent Reader, Thermolab systems OY, Helsinki, Finland) equipped with a 390/460 nm filter set. Briefly, 80 μL of plasma is dispensed into the wells of round-bottom 96 well-microtiter plates. 20 μL of a mixture containing tissue factor and phospholipids is added to the PPP sample; alternatively, in order to obtain contact activation, the citrated plasma is preincubated for at least 10 min with 1 mg/ml of Kaolin light. The starting reagent (20 μL per well) contains fluorogenic substrate and CaCl2. […] The most important parameters that can be derived from CAT are lag time, endogenous thrombin potential corresponding to the area under the CAT curve, peak height of thrombin and time to peak.

[3] = ki F.XIIa (ng/ml), Before heating

Row | Compound | Ki (h-FXIIa [1]; Ki, Table 2, inhibitory activity of different polypeptides) | Ki (h-FXIIa [1]; [3]) | Res. Act. (%) (h-FXIIa [2]; inhibitor 30 min 95° C.) | Res. Act. (%) (h-FXIIa [2]; inhibitor at RT during 72 hrs) | Res. Act. (%) (h-FXIIa [2]; inhibitor kept at −80° C.) | 4 × lag-time (ng/ml) (contact activation; After heating) | 4 × lag-time (μM) (contact activation; After heating) | 4 × lag-time (ng/ml) (contact activation; Before heating) | 4 × lag-time (μM) (contact activation; Before heating) | Ki (h-FXIIa [1]; ki F.XIIa (nM), Before heating)
1 | CC[C@H](C)[C@@H]1NC(=O)[C@H](CCCNC(=N)N)NC(=O)[C@@H]2CCCN2C(=O)[C@@H](NC(=O)[C@@H](NC(=O)[C@@H](N)CCCNC(=N)N)C(C)C)CSSC[C@@H]2NC(=O)[C@H](CCC(=O)O)NC(=O)[C@H](C)NC(=O)[C@H](CC(C)C)NC(=O)[C@@H]3CSSC[C@@H](C(=O)NCC(=O)O)NC(=O)[C@H](Cc4ccc(O)cc4)NC(=O)CNC(=O)[C@H](Cc4c[nH]cn4)NC(=O)[C@H](CCC(=O)O)NC(=O)[C@H](CC(C)C)NC(=O)[C@H](CSSC[C@H](NC(=O)[C@H](CCC(=O)O)NC(=O)[C@H](CCSC)NC(=O)[C@H](CC(C)C)NC1=O)C(=O)N[C@@H](CCCCN)C(=O)N[C@@H](CCCCN)C(=O)N[C@@H](CC(=O)O)C(=O)N[C@@H](CO)C(=O)N[C@@H](CC(=O)O)C(=O)N3)NC(=O)[C@H](C(C)C)NC2=O [TICA2] (H-RVCPRILMECKKDSDCLAECVCLEHGYCG-OH; disulfide 3-20, 10-22, 16-28 (inferred); N-terminus and C-terminus assumed) | 109 nM | 109 nM | 99% | 105% | 100% | 31.9 ng/mL | 9.8 µM | 31.1 ng/mL | 9.6 µM | 
2 | CC[C@H](C)[C@@H]1NC(=O)[C@@H]2CSSC[C@H](NC(=O)[C@@H](NC(=O)[C@@H](N)CCCNC(=N)N)C(C)C)C(=O)N3CCC[C@H]3C(=O)N[C@@H](CCCCN)C(=O)N[C@@H]([C@@H](C)CC)C(=O)N[C@@H](CC(C)C)C(=O)N[C@@H](CCSC)C(=O)N[C@@H](CCC(=O)O)C(=O)N[C@H]3CSSC[C@H](NC1=O)C(=O)N[C@@H](CC(C)C)C(=O)N[C@@H](CCC(=O)O)C(=O)N[C@@H](Cc1c[nH]cn1)C(=O)NCC(=O)N[C@@H](Cc1ccc(O)cc1)C(=O)N[C@H](C(=O)NCC(=O)O)CSSC[C@H](NC(=O)[C@H](CC(=O)O)NC(=O)[C@H](CO)NC(=O)[C@H](CC(=O)O)NC(=O)[C@H](CCCCN)NC(=O)[C@H](CCCCN)NC3=O)C(=O)N[C@@H](CC(C)C)C(=O)N[C@@H](C)C(=O)N[C@@H](CCC(=O)O)C(=O)N2 [TICA4] (H-RVCPKILMECKKDSDCLAECICLEHGYCG-OH; disulfide 3-20, 10-22, 16-28 (inferred); N-terminus and C-terminus assumed) |  | 1420 nM | 94% | 98% | 100% | 102.9 ng/mL | 31.4 µM | 102.7 ng/mL | 31.6 µM | 1420 nM

Reference: patent US20140296146A1, “Thermostable Inhibitors of Activation of the Blood Clotting System Through Contact with Foreign Surfaces” (Synapse B.V., priority 2011, published 2014)
